The source of these data is publication PMC12038849, “Identification and Characterization of a Leoligin-Inspired Synthetic Lignan as a TGR5 Agonist” (Journal of Natural Products, 2025).

pEC50: −log10 of the molar value.

This test concerns the target T1, G-protein coupled bile acid receptor 1 (GPBAR1 or TGR5) (Homo sapiens, UniProt Q8TDU6).
T1 construct: human TGR5-ORF (NM_170699), stably expressed in HEK EPAC cells
T1 sequence (Q8TDU6 1-330): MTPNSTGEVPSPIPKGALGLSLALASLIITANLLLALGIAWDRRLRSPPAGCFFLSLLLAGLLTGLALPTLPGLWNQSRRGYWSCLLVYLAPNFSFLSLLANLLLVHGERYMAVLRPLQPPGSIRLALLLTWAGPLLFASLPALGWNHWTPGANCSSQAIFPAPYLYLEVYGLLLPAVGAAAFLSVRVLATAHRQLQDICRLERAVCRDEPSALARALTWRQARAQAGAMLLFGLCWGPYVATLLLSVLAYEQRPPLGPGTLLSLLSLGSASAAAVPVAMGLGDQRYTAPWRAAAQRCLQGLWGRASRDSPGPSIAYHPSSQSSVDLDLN
Kind of test: EPAC FRET cAMP accumulation assay in TGR5-expressing HEK cells; inactive in non-TGR5 cells. Format: cell-based. (Changes in cAMP serve as a functional read-out for many G protein-coupled receptors.)

One may read the pEC50 as −log10 of the EC50, conventionally taken in molar units. High values mean a small EC50, low ones a large EC50. The compound `C/C=C(/C)C(=O)OCC[C@H]1[C@@H](Cc2ccc(OC)c(OC)c2)CO[C@@H]1c1ccc(OC)c(OC)c1` [compound 1, LT-188A] showed a pEC50 of 4.64.
